Results on 1 compound are retold here after patent US10047050B2, “3,4-di-substituted pyridine compound, methods of using and compositions comprising the same” (ARDEA BIOSCIENCES, INC., priority 2011, dated 2018).

The term EC50 denotes the midpoint of the concentration-response curve. A high value points to lower potency in that assay.

For the test, the target named is T1, URAT-1 model (Homo sapiens, UniProt Q96S37).
T1 sequence (Q96S37 1-553): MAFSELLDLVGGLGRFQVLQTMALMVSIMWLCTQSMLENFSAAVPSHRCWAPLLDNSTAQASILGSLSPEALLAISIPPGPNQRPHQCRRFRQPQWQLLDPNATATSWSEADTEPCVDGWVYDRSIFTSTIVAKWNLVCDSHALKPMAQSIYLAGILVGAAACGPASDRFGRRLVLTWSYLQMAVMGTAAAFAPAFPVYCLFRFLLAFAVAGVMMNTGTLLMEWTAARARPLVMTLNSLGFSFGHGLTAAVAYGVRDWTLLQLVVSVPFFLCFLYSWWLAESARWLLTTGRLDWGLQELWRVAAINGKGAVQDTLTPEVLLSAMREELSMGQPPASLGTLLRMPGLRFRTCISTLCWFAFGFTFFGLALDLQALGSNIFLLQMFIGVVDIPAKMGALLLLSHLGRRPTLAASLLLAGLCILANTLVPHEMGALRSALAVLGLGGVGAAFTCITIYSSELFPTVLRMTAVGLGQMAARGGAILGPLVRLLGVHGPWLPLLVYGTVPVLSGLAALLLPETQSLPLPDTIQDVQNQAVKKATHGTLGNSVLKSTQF
Nature of the test: URAT1-model assay, 14C-uric acid transport in HEK293/URAT1-model cells. The test is classed as cell-based. Particulars: 125 μM 14C-uric acid, 10 minutes. How it is done: Transfections of HEK293 cells with a model URAT1 construct was performed using L2000 transfection reagent (Invitrogen) as described by the manufacturer. After 24 h the transfected cells were split into 10 cm tissue culture plates and grown for 1 day after which the medium was replaced with fresh growth medium containing G418 (Gibco) at 0.5 mg/ml final concentration. Drug-resistant colonies were selected after approximately 8 days and then tested for ^14C-uric acid transport activity. The HEK293/URAT1-model cells are plated on Poly-D-Lysine Coated 96-well Plates at a density of 125,000 cells per well.
Cells were grown overnight (20-26 hours) at 37° C. in an incubator. Plates were allowed to come to room temperature and media was washed out with one wash of 250 μl of Wash Buffer (125 mM Na Gluconate, 10 mM Hepes ph 7.3). […] Assay Buffer is 125 mM Sodium Gluconate, 4.8 mM Potassium Gluconate, 1.2 mM Potassium phosphate, monobasic, 1.2 mM magnesium sulfate, 1.3 mM Ca Gluconate, 5.6 mM Glucose, 25 mM HEPES, pH 7.3. Plates were incubated at room temperature for 10 minutes then washed 3 times with 50 μl Wash Buffer and 3 times with 250 μl Wash Buffer. Microscint 20 Scintillation Fluid was added and plates were incubated overnight at room temperature to equilibrate. Plates are then read on the TopCount Plate Reader and an EC50 value generated. […]

As to `CC(C)(Sc1ccncc1-c1ccc(C#N)c2ccccc12)C(=O)O` [2-((3-(4-cyanonaphthalen-1-yl)pyridin-4-yl)thio)-2-methylpropanoic acid], the 50% effective concentration (EC50) is at most 50 nM.
